Laboratory results taken from patent US6180615A, “Propargyl phenyl ether A2A receptor agonists” (CV Therapeutics, Inc., priority 1999, dated 2001).

Target: T1, A2A receptor (Sus scrofa, UniProt K9IW67)
T1 construct: from tissue; host or cells: pig striatum membranes
Assay: affinity for the A2A receptor in a pig striatum membrane prep (displacement of tritiated antagonist ZM 241385)
Format: binding
Details: pig striatal membranes, adenosine deaminase, 50 mM Tris pH 7.4, 2 nM tritiated ZM 241385, 23° C. for 2 h
Procedure: Compositions of this invention were assayed to determine their affinity for the A2A receptor in a pig striatum membrane prep. 0.2 mg of pig striatal membranes were treated with adenosine deaminase and 50 mM Tris buffer (pH=7.4) followed by mixing. To the pig membranes was added 2 μL of serially diluted DMSO stock solution of the compounds of this invention at concentrations ranging from 100 μM to 10 nM or the control received 2 μL of DMSO alone, then the tritiated antagonist ZM 241385 in Tris buffer (50 mM, pH of 7.4) was added to achieve a final concentration of 2 nM . After incubation at 23° C. for 2 h, the solutions were filtered using a membrane harvester using multiple washing of the membranes (3×). The filter disks where counted in scintillation cocktail affording the amount of displacement of tritiated ZM by the competitive binding compositions of this invention. Greater than a 5 point curve was used to generate IC50's and the number of experiments (n) is indicated in the column marked in Table 1 below.

T1 sequence (K9IW67 1-409): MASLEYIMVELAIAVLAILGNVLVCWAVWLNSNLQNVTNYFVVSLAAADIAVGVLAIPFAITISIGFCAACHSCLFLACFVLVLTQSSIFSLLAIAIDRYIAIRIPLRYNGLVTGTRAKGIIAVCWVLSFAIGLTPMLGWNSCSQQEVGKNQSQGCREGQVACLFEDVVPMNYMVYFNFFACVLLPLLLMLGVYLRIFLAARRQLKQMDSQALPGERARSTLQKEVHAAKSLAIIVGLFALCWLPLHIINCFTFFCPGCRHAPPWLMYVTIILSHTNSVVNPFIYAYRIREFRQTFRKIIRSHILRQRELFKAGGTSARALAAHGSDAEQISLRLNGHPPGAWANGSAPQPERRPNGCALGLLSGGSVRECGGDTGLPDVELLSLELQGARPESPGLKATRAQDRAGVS

Nc1nc(C#CCOc2ccccc2-c2ccccc2)nc2c1ncn2[C@@H]1O[C@H](CO)[C@@H](O)[C@H]1O [Compound 10, (4S,2R,3R,5R)-2-{6-amino-2-[3-(2-phenylphenoxy)prop-1-ynyl]purin-9-yl}-5-(hydroxymethyl)oxolane-3,4-diol]
Ki: 100 to 1000 nM

Nc1nc(C#CCOc2ccccc2)nc2c1ncn2[C@@H]1O[C@H](CO)[C@@H](O)[C@H]1O [Compound 11, (4S,2R,3R,5R)-2-[6-amino-2-(3-phenoxyprop-1-ynyl)purin-9-yl]-5-(hydroxymethyl)oxolane-3,4-diol]
Ki: 10 to 100 nM

N#Cc1ccc(OCC#Cc2nc(N)c3ncn([C@@H]4O[C@H](CO)[C@@H](O)[C@H]4O)c3n2)cc1 [Compound 12, 4-(3-{9-[(4S,2R,3R,5R)-3,4-dihydroxy-5-(hydroxymethyl)oxolan-2-yl]-6-aminopurin-2-yl}prop-2-ynyloxy)benzenecarbonitrile]
Ki: 100 to 1000 nM

Nc1nc(C#CCOc2ccc(-c3ccccc3)cc2)nc2c1ncn2[C@@H]1O[C@H](CO)[C@@H](O)[C@H]1O [Compound 13, (4S,2R,3R,5R)-2-{6-amino-2-[3-(4-phenylphenoxy)prop-1-ynyl]purin-9-yl}-5-(hydroxymethyl)oxolane-3,4-diol]
Ki: 1000 to 10000 nM

Nc1nc(C#CCOc2ccccc2Cc2ccccc2)nc2c1ncn2[C@@H]1O[C@H](CO)[C@@H](O)[C@H]1O [Compound 14]
Ki: 100 to 1000 nM

Nc1nc(C#CCOc2cccc3c2OCO3)nc2c1ncn2[C@@H]1O[C@H](CO)[C@@H](O)[C@H]1O [Compound 15, 2-[2-(3-(2H-benzo[2,3-d]1,3-dioxolen-4-yloxy)prop-1-ynyl)-6-aminopurin-9-yl](4S,2R,3R,5R)-5-(hydroxymethyl)oxolane-3,4-diol]
Ki: 10 to 100 nM

CC(C)(C)c1cc(OCC#Cc2nc(N)c3ncn([C@@H]4O[C@H](CO)[C@@H](O)[C@H]4O)c3n2)cc(C(C)(C)C)c1 [Compound 16, (4S,2R,3R,5R)-2-(6-amino-2-{3-[3,5-bis(tert-butyl)phenoxy]prop-1-ynyl}purin-9-yl)-5-(hydroxymethyl)oxolane-3,4-diol]
Ki: 1000 to 10000 nM
